How the values were obtained:
[1] = Merck Index 13 edit.; cited from earlier work
[2] = Dissolution of coumarin from PL75D/TP blend cap-coated shims in PBS; format: physicochemical; conditions: PL75D/TP cap coats over TL/coumarin base coat, 37° C., FIG. 8
Method: PL75D was dried at 70° C. at reduced pressure overnight. The dried pellets were compressed between two plates that were pre-heated to 230° C. and maintained for about 5 minutes. After the sample was cooled down to room temperature, it was placed in a vial filled with THF and stirred until dissolved (by visual observation). TP and TL were directly dissolved in THF by stirring the mixtures at room temperature. Coumarin was also dissolved in THF. The concentrations of all the solutions were about 1 wt-%. TL solution and coumarin solution were mixed at a weigh ratio of 1:1. This mixture is the base coating solution of a reservoir system. TP solution and PL75D solution were mixed at various weight ratios to make five different mixtures with the weight ratios of TP to PL75D being 100:0, 75:25, 50:50, 25:75, and 0:100. […]
Dissolution of coumarin from the cap-coated shims was conducted by placing the coated shims in glass vials that contained phosphate buffered saline solution (PBS, potassium phosphate monobasic (NF tested), 0.144 grams per liter (g/L), sodium chloride (USP tested), 9 g/L, and sodium phosphate dibasic (USP tested) 0.795 g/L, pH=7.0 to 7.2 at 37° C., purchased from HyClone, Logan, Utah). […] The concentration of coumarin in all these solutions was measured with a liquid chromatography (HP 1090) that was equipped with a UV detector. […]

## O=c1ccc2ccccc2o1 [Coumarin]
[1]
  Volume of cold water in which one gram dissolves: 400 mL
[2]
  Release rate versus cap coat composition: release much faster from a 100% PL75D coated shim than that from 100% TP coated shim

Reference: patent publication US20040033251A1, “Active agent delivery system including a polyurethane, medical device, and method” (Medtronic, Inc., priority 2002, published 2004)
